Results from patent publication US12390483B2, “Compounds and methods for treating neurological and cardiovascular conditions” (Astrocyte Pharmaceuticals, Inc., priority 2016, dated 2025).
Like-named read-outs stand apart in the source and are kept apart here.

Legend:
[1] = Pharmacokinetics of MRS4322 following intraperitoneal administration to mice (plasma and brain concentrations); assay type: in vivo; settings: MRS4322 […] i.p.; for Plasma Concentration Mean / Plasma Concentration by Subject: BLQ = below 2.40 ng/mL; for Brain Concentration Mean / Brain Concentration by Subject: BLQ = below 9.64 ng/g; for Plasma Concentration by Subject / Brain Concentration by Subject: subjects A-C
Procedure: Animals: Female C576BL/6J mice weighing approximately 0.02 kg were used for this study, supplied by the University of Texas Health Sciences Center (San Antonio, TX). All studies were conducted under approved University of Texas Health Sciences Center IACUC protocols.
Drug Administration: MRS4322 was solubilized in DMSO and then diluted in saline to prepare dosing solution. Final dosing solution concentration of MRS4322 was 100 μM. A 100 μL volume of dosing solution was administered intraperitoneally to each mouse per 20 gram body weight; MRS4322 was administered intraperitoneally at 0.16 mg/kg or 0.5 μmol/kg. Three mice were administered MRS4322 for each sampling timepoint.
Tissue Sampling: Blood and brain samples were obtained at 0, 0.083, 0.25, 0.5, 1, 2 and 8 hours post-dose. At each timepoint, mice (3/timepoint) were euthanized in a […] chamber. Whole blood was obtained by cardiac puncture into Microtainer tubes containing heparin and immediately centrifuged for preparation of plasma; plasma was stored at −80° C. At each timepoint, whole brain samples were obtained by decapitation, rinsed in ice-cold phosphate-buffered saline and weighed. Brain samples were then immediately flash-frozen in liquid nitrogen and stored at −80° C.
(§1) The following table outlines the LC and MS/MS conditions employed:
The calibration range for the MRS4322 plasma concentration standard curve was 2.42-242 ng/mL. The calibration range for MRS4322 brain concentrations was 2.41-233 ng/mL.
For bioanalysis of brain concentrations of MRS4322, brain samples were homogenized in ice-cold phosphate-buffered saline in a 4× dilution. Aliquots of the resulting diluted brain homogenate were treated with acetonitrile and analyzed by LC-MS/MS. Because of the 4× homogenate dilution, the calibration range of the MRS4322 brain standard curve was translated to 9.64-932 ng/gm. In several samples, MRS4322 was detectable but fell below the brain LLOQ of 9.64 ng/gm but were above background; in these cases the final reported brain concentration was extrapolated based on MS peak heights.

[2] = Pharmacokinetics of MRS4322 following intravenous administration to neonatal pigs; assay type: in vivo; settings: 0.2 mg/kg IV; for C0: 0.2 mg/kg, neonatal pig plasma, individual animals
Procedure: Animals. Four-week old female neonatal pigs weighing approximately 7.5 Kg were used for this study, supplied by the Department of Bioengineering, University of Pennsylvania (Philadelphia, PA). Animals were equipped with brain microdialysis probes to obtain brain extracellular fluid samples for drug concentration determinations during the study. All studies were conducted under approved University of Pennsylvania IACUC protocols.
Drug Administration: MRS4322 was solubilized in DMSO and then diluted in saline to prepare dosing solution. A 10 mL volume of dosing solution was administered by intravenous bolus administration to each neonatal pig (n=3).
Tissue Sampling: Blood samples were obtained at 0.25, 0.5, 1, 2, 4 and 6 hours post-dose. Brain extracellular fluid samples were obtained from implanted microdialysis probes at 1, 4 and 6 hours post-dose. Whole blood (1 mL) was obtained at each timepoint and placed in vacutainer tubes containing heparin and immediately centrifuged for preparation of plasma; plasma was stored at −80° C. Brain extracellular and cerebrospinal fluid samples were stored at −80° C. At the time of euthanasia (6 hours post-dose), cerebrospinal fluid samples were obtained and frozen, while brain samples from the cortex and hippocampus were obtained by decapitation, rinsed in ice-cold phosphate-buffered saline and weighed. Brain samples were then immediately flash-frozen in liquid nitrogen and stored at −80° C.
as §1
The calibration ranges for all of the MRS4322 matrice's standard curves were 0.1-1000 ng/mL.
For bioanalysis of brain concentrations of MRS4322, brain samples were homogenized in ice-cold phosphate-buffered saline in a 4× dilution. Aliquots of the resulting diluted brain homogenate were treated with acetonitrile and analyzed by LC-MS/MS.

[3] = In vitro stability of MRS2365 in mouse plasma; assay type: in vitro ADME; settings: heparin-treated mouse plasma, 0-90 seconds, even at 0 and 5 seconds
Procedure: Whole blood was obtained from male CD-1 mice and human volunteers at Seventh Wave Laboratories (Maryland Heights, MO). Plasma and blood samples were prepared using either EDTA (1 mM) or lithium heparin as anticoagulants.
Plasma Stability Determination: MRS2365, enalapril and procaine were solubilized in phosphate-buffered saline, pH 7.4. […] Stability incubations were initiated with the addition of MRS2365 (1 μM final concentration). Initial assessments of stability in EDTA-generated plasma utilized incubation timepoints of 0, 10, 30, 60, 120 and 240 minutes (FIGS. 3 and 4). Subsequent studies comparing EDTA- and heparin-generated plasma utilized incubation timepoints of 0, 1, 2.5, 5, 7.5, 10 and 30 minutes (FIG. 7). Additional plasma stability incubations comparing EDTA- and heparin-generated plasma were performed using timepoints of 0, 5, 10, 20, 30, 45, 60 and 90 seconds (FIG. 8). For metabolite scouting analyses, MRS2365 was incubated in heparinized human plasma at a concentration of 100 μM for 10 or 30 minutes (FIG. 9). In all studies, plasma was immediately placed in microtainer tubes, frozen on dry ice and stored at −80° C. until analysis.
The following table outlines the LC and MS/MS conditions employed (Table 11).
The calibration range for MRS2365 plasma and blood concentration standard curves was 5-5000 ng/mL. […]

[4] = Stability of MRS2365 incubated in phosphate-buffered saline; assay type: physicochemical

Row | SMILES | Plasma Concentration Mean ([1]; 0 h) | Brain Concentration Mean ([1]; 0 h) | Plasma Concentration by Subject ([1]; 0 h) | Brain Concentration by Subject ([1]; 0 h) | Brain Concentration Mean ([1]; 1 h) | Brain Concentration by Subject ([1]; 1 h) | Brain Concentration Mean ([1]; 2 h) | Brain Concentration by Subject ([1]; 2 h) | Plasma Concentration Mean ([1]; 8 h) | Brain Concentration Mean ([1]; 8 h) | Plasma Concentration by Subject ([1]; 8 h) | Brain Concentration by Subject ([1]; 8 h) | C0 ([2]; female, pig, plasma, iv, read-out: C0) [ng/mL] | C0 [2] [ng/mL] | Plasma Concentration by Subject ([2]; neonatal pigs, 0 h, individual subjects, BLQ = below 0.0975 ng/mL) | Plasma Concentration Mean ([2]; neonatal pigs, 0 h, BLQ = below 0.0975 ng/mL) | MRS2365 concentrations during incubation [3] | stability in phosphate-buffered saline [4]
1 | CSc1nc(N)c2ncn([C@H]3[C@H](O)[C@H](O)[C@]4(CO)C[C@H]34)c2n1 [MRS4322] | BLQ | BLQ | BLQ | BLQ | BLQ | BLQ | BLQ | BLQ | BLQ | BLQ | BLQ | BLQ | 266 | 269 | BLQ | BLQ |  | 
2 | CSc1nc(N)c2ncn([C@H]3[C@H](O)[C@H](O)[C@]4(COP(=O)(O)OP(=O)(O)O)C[C@H]34)c2n1 [MRS2365] |  |  |  |  |  |  |  |  |  |  |  |  |  |  |  |  | extremely low | completely stable
